Source: patent US5116602A, “Antiplaque oral compositions” (Colgate-Palmolive Company, priority 1989, dated 1992)
Like-named read-outs stand apart in the source and are kept apart here.

Assays:
Rat = conditions: cited from earlier work
[1] = test system: Actinomyces viscosus T14V; assay type: cell-based; conditions: for % Red. / Bact. Count (Log 10): Table VIII
Source text: The SIKT test is a basic microbiological test which incorporates a fixed contact time. […] The system is then neutralized to inhibit further antimicrobial activity. The surviving bacteria are enumerated using plate count methodology. The reduction in counts compared to a water control is the basis for expressing activity. A three log reduction is usually considered significant.

[2] = oral, values reported in the literature
[3] = Table VI, rinses, with and without Carbopol polymers

SMILES	LD 50 (Oral, Rat) (Rat; [2])	% Red. ([1]; concentration 0.01)	Bact. Count (Log 10) ([1]; concentration 0.01)	% Red. ([1]; concentration 0.02)	Bact. Count (Log 10) ([1]; concentration 0.02)	% Red. ([1]; concentration 0.04)	Bact. Count (Log 10) ([1]; concentration 0.04)	% Red. ([1]; concentration 0.06)	Bact. Count (Log 10) ([1]; concentration 0.06)	% Red. ([1]; concentration 0.07)	Bact. Count (Log 10) ([1]; concentration 0.07)	% Red. ([1]; concentration 0.08)	Bact. Count (Log 10) ([1]; concentration 0.08)	further results
CC(C)=CCC[C@](C)(O)C1CC=C(C)CC1 (stereo partly drawn) [Bisabolol]	5000 mg/kg													
[H]/N=C(\N/C(=N/[H])NCCCCCCNC(=N)NC(=N)Nc1ccc(Cl)cc1)Nc1ccc(Cl)cc1 [Chlorhexidine, reference compound]														% Reduction [1, 3]: > 99.00%; Bacterial Count (log 10) [1, 3]: 4.52 log 10
CC(C)=CCCC(C)=CCCC(C)=CCO [Farnesol]		> 99.99%	< 2.00 Log 10	> 99.99%	< 2.00 Log 10	> 99.99%	< 2.00 Log 10	> 99.99%	< 2.00 Log 10	> 99.99%	< 2.00 Log 10	> 99.99%	< 2.00 Log 10	% Red. ([1]; concentration 0.005): 99.9%; Bact. Count (Log 10) ([1]; concentration 0.005): 3.66 Log 10; % Red. ([1]; concentration 0.0075): > 99.99%; Bact. Count (Log 10) ([1]; concentration 0.0075): 2.50 Log 10
COC(=O)c1ccccc1O [Methyl salicylate, reference compound]														LD 50 (Oral, Rat) (Rat; in vivo, po): 887 mg/kg
C=CC(C)(O)CCC=C(C)CCC=C(C)C (stereo not drawn) [Nerolidol]	> 5000 mg/kg													
Cc1ccc(C(C)C)c(O)c1 [Thymol, reference compound]		0%	6.67 Log 10	0%	6.71 Log 10	0%	6.23 Log 10	99.99%	3.93 Log 10	> 99.99%	< 2.00 Log 10	> 99.99%	< 2.00 Log 10	
